For assay [1], the target named is angiotension-conversion enzyme (ACE) (Homo sapiens, UniProt P12821). Nature of the assay: ACE-inhibitory activity (method of Analytical Biochemistry 84, 361 (1978)). It is filed as biochemical. An excerpt: The enzyme-inhibitory activity of the test compounds against ACE were estimated in accordance with a method as described in the literature "Analytical Biochemistry", 84, 361 (1978).

Assay [2] addresses T1, post-proline-cleaving enzyme (PPCE) (Sus scrofa, UniProt P23687).
T1 construct: PPCE used was an enzyme preparation made from swine kidney; from tissue; host or cells: swine kidney, ammonium sulfate fractionation and DEAE-Sephadex chromatography
Kind of assay: PPCE-inhibitory activity (substrate Z-Gly-Pro-PNA). It is filed as biochemical, swine. To be noted: for pIC50: 37° C., 15 minutes, PPCE from swine kidney. How it is done: The enzyme-inhibitory activities of these test compounds against PPCE were estimated by adding a substrate compound of the formula [drawing 18] namely, N-benzyloxycarbonyl-glycyl-prolyl-p-nitroanilide (Z-Gly-Pro-PNA) to a solution of an enzyme, then adding to the solution each test compound having the enzyme-inhibiting activity to be assayed, reacting the substrate, the enzyme and the test compounds with each other at 37° C. for 15 minutes and then measuring the consumed amount of the substrate in terms of the determined reduction in the absorbency of a ultraviolet ray of a given wave length which transmitted the reaction solution where the substrate compounds, the enzyme and the enzyme-inhibiting test compound have been reacted with each other. In these tests, PPCE used was an enzyme preparation made from swine kidney and prior to its use, was purified by fractionation with ammonium sulfate and by subsequent chromatography on DEAE-Sephadex agent.

Another assay deals with peptidases. Particulars: Journal of Antibiotics 38, 1629-1630 (1985); cited from earlier work.
The conditions of assay [3]: U.S. Pat. No. 3,240,787; cited from earlier work.
For assay [4] the following is noted: Kokai No. 15840/86; U.S. Pat. No. 4,663,342; cited from earlier work.
Assay [5] deals with enkephalin-degrading enzymes. To be noted: Kokai No. 4228/87; cited from earlier work.
For assay [6] the following is noted: Kokai No. 4228/87; cited from earlier work.
Assay [7] deals with experimental amnesia in mice. Nature of the assay: step-down type passive avoidance response test, cycloheximide-induced amnesia in mice. Format: in vivo, mouse (male ddy-mice). To be noted: for Residence time: 24 h, max 300 s, control mice 220 ± 37. How it is done: These experiments were performed using male ddy-mice having an average body weight of 25 g as the test animal. A platform in cubic form having a length of 4 cm for each side of the cube was arranged in a cage on the floor of the cage. Each mouse was placed on the platform. An electric current-feeding device had been provided on the floor area of the cage which positioned outside the platform. It was so arranged that whenever the mouse descended onto the floor from the platform, a 60 V electric current was caused to pass through the floor for 0.5 second to shock the mouse so as to have the mouse learn the shocking passage of electric current. Immediately after the mouse's learning, the mouse was subcutaneously administered with 30 mg/kg of cycloheximide so as to induce experimental amnesia. Each test compound had been intraperitoneally administered to the mouse at a time of 15 minutes before the mouse's learing was commenced. Upon an elapsed time of 24 hours after the completion of the mouse's learning for the electric current passage, the mouse treated as above was again placed on the same platform in the same cage under the same conditions, and the residence time of the mouse staying on the platform was measured under a pre-requisit that a maximum residence time as determined was set to be up to 300 seconds.
The results of the experiments for the cycloheximide-induced amnestic mice as treated by the previous intraperitoneal administration of the test compound of this invention are summarized in Table 2 below.

pIC50: −log10 of the molar value. “Also recorded” adds a separate entry of the source. A value given as a limit tells only on which side of the number the result lay.

T1 sequence (P23687 whole entry): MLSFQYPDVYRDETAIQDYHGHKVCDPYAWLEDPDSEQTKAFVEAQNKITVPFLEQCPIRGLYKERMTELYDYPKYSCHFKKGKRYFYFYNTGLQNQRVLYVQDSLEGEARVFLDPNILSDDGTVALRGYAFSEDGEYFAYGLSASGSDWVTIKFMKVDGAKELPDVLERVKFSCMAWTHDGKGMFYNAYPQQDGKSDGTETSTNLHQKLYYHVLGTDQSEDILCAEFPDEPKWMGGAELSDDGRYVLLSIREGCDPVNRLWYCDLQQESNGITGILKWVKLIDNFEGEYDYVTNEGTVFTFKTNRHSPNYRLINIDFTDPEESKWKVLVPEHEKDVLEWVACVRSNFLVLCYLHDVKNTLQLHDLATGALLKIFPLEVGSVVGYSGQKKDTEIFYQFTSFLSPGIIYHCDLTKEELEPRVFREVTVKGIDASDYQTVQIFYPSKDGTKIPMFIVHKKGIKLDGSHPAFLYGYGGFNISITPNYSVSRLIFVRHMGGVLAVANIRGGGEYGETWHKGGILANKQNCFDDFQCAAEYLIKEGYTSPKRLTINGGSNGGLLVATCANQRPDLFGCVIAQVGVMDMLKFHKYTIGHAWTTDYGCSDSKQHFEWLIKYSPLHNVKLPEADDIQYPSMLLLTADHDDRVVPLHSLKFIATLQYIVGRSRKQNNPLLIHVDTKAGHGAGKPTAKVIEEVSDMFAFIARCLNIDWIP
Sequence of angiotension-conversion enzyme (ACE) (P12821 30-1306, species assumed): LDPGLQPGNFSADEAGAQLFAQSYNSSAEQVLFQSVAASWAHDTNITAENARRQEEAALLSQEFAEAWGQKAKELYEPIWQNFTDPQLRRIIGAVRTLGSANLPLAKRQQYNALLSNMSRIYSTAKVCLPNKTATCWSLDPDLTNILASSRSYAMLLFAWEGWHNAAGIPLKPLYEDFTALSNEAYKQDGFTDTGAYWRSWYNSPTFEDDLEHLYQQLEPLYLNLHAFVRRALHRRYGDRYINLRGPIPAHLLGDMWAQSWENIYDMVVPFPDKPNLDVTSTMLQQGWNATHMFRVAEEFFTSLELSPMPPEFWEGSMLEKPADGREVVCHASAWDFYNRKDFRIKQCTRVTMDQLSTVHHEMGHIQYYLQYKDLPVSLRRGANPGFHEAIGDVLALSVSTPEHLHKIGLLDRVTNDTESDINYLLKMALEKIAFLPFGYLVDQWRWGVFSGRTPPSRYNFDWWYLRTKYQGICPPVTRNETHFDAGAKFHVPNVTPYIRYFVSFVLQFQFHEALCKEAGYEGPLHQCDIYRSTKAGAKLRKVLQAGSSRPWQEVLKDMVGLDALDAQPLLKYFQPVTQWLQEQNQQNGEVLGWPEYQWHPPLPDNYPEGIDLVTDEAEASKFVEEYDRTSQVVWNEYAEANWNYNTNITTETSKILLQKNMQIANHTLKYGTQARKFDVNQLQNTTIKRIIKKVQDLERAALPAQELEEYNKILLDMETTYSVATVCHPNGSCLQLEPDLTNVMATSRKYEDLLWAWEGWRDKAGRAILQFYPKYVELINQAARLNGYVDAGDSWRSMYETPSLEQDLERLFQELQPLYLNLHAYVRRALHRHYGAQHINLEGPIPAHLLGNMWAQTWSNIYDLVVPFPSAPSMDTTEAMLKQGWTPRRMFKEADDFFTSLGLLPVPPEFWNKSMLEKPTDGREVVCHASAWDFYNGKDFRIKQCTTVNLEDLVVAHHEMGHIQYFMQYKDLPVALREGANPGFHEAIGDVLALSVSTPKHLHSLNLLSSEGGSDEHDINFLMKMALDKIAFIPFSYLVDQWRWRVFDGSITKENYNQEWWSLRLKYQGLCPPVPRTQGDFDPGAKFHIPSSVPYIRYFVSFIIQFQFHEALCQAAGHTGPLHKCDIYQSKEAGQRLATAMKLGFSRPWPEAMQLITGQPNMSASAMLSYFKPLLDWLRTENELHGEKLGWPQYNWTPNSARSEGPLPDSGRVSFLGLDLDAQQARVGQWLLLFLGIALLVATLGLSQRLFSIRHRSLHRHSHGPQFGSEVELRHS

For `CCCCC[C@H](CC(=O)NO)C(=O)N[C@H](C(=O)N1CCC[C@H]1CO)C(C)C` [Actinonin], in assay [1], the “ACE-inhibitory activity (in words)” value was “medium enzyme-inhibitory activity; also recorded: medium enzyme-inhibitory activities” and the pIC50 is 4.42. Moreover, in assay [2], the “PPCE-inhibitory activity (in words)” value is reported as “medium enzyme-inhibitory activity; also recorded: medium enzyme-inhibitory activities” and the pIC50 was 4.11. The “inhibition of peptidases (in words)” value in the assay with peptidases is recorded as “inhibit a wide variety of peptidases”. Also, in assay [3], the “antibacterial activity (in words)” value is listed as “antibacterial activity”. Besides, the “immunopotentiating activity (in words)” value in assay [4] is “immunopotentiating activity”. Also, in assay [5], the “inhibition of the enkephalin-degrading enzymes (in words)” value was “can inhibit the enkephalin-degrading enzymes”. Further, in assay [6], the “anodyne activity (in words)” value was “anodyne activity”.

For `CCCCC[C@H](CC(=O)O)C(=O)N[C@H](C(=O)N1CCC[C@H]1CO)C(C)C` [Compound of the Formula (III), (2S)-2-pentylsuccinyl-L-valyl-L-prolinol], the pIC50 in assay [1] and in assay [2] was less than 3.87 throughout.

For the molecule `CCCCC[C@H](CC(=O)O)C(=O)N[C@H](C(=O)N1CCC[C@H]1C=O)C(C)C` [Example 1, (2S)-2-pentylsuccinyl-L-valyl-L-prolinal], the pIC50 in assay [1] is less than 3.87; in assay [2] it was 7.08.

With `CCCCC[C@H](CC(=O)OCC)C(=O)N[C@H](C(=O)N1CCC[C@H]1C=O)C(C)C` [Example 2, (2S)-3-Ethoxycarbonyl-2-pentylpropionyl-L-valyl-L-prolinal], the “ACE-inhibitory activity (in words)” value in assay [1] is “no enzyme-inhibitory activity against ACE”. For the same molecule, the pIC50 is less than 3.90 in assay [1] and 7.26 in assay [2]. Also, the “PPCE-inhibitory activity (in words)” value in assay [2] is “strong PPCE-inhibitory activity”. For the same molecule, the Residence time in assay [7] (3 mg/kg i.p. 15 min before learning, cycloheximide 30 mg/kg s.c., n=9, cycloheximide alone 114 ± 26) amounted to 188 ± 35 s; in assay [7] (10 mg/kg i.p. 15 min before learning, cycloheximide 30 mg/kg s.c., n=9, cycloheximide alone 114 ± 26), 180 ± 26 s. For the same molecule, the “therapeutic effects to treat the experimental amnesia (in words)” value in assay [7] (cycloheximide-induced amnesia, mice) is “marked therapeutic effects”.

`C[C@@H]1C[C@@H]([C@H](O)CC2CC(=O)NC(=O)C2)C(=O)[C@@H](C)C1` [cycloheximide] returned a Residence time in assay [7] (cycloheximide alone (comparative), 30 mg/kg s.c. after learning, n=10) of 114 ± 26 s.

A word on the pIC50: it is the negative decadic logarithm of the IC50, by convention in mol/L.

Values taken from patent US4929633A, “Actinonin derivatives having physiological activities” (Zaidan Hojin Biseibutsu Kagaku Kenkyu Kai, priority 1987, dated 1990).
